# Earlier results as cited in patent publication US5366983A, “Use of quaternary ammonium compounds to remove salmonella contamination from meat products” (The Board of Trustees of The University of Arkansas, priority 1992, dated 1994).
# Key:
# [1] = tested on: Escherichia coli ATCC 25922; details: E. coli; cited from earlier work
# [2] = tested on: Staphylococcus aureus ATCC 29213; details: S. aureus; cited from earlier work
structure (smiles),measurement,setting,value
CC1(C)S[C@@H]2[C@H](NC(=O)[C@H](N)c3ccccc3)C(=O)N2[C@H]1C(=O)O [ampicillin],acceptable MIC by NCCLS,[1],2 to 8 µg/mL
same,acceptable MIC by NCCLS,[2],0.5 to 2 µg/mL
